Values after ≈ are worked out from the molar mass of the structure shown. No end group written: not given here.
Legend:
NIH 3T3 cells = test: in vitro transfer of nucleic acid into NIH 3T3 cells with DOGS (luciferase activity); format: cell-based; conditions: 0.25 μg compound
Procedure: (§1) 1. A mixture of 10 μl composed of the following is prepared:
0.5 μg of pCMV-luc plasma DNA, 0.25 μg of a compound according to the invention, in a buffer solution as identified,
40 mM dioctadecylamidoglycylspermine (DOGS) in charge ratios X as indicated in each of the tests. 2. 5·10^4 cells from the NIH3T3 lines are incubated with the above mixture at 37° C., under an atmosphere of 5% CO2 for 4 hours. The cells are then washed and recultured for 48 hours in a medium containing 10% serum (DMEM 10% SVF).
The cell carpet is then lysed in 50 μl of lysis buffer (Promega), recovered and then centrifuged at 20,000 g for 5 minutes.
The luciferase activity is measured on 4 μl of supernatant by adding 20 μl of substrate (Promega). The reading is taken on a LKB luminometer, cumulating the RLUs (relative light units) over 20 seconds.
3. Compaction in 150 mM NaCl, 10 mM HEPES* (* N-(2-hydroxyethyl)piperazine-N'-(2-ethanesulphonic acid) at pH 7.1
4. Compaction in 5% D-glucose, 150 mM NaCl, with 10 mM HEPES (pH of the compaction solution: 7.2)

NIH3T3 cells [1] = test: Variation of compound/DNA ratio in the presence of DOGS, luciferase activity; format: cell-based; conditions: PEP/DNA w/v 0 (no peptide); DOGS charge ratio 1.8x; 0.75 μg DNA
Procedure: as §1
0.75 μg of pCMV-luc plasma DNA and a compound according to the invention in the ratio indicated, in 5% D-glucose, 150 mM NaCl buffer solution, with 10 mM HEPES (pH of the compaction solution: 7.2),
40 mM dioctadecylamidoglycylspermine (DOGS) in a charge ratio of 1.8×.
(§2) 2. 4·10^5 cells from NIH3T3 lines are incubated with the above mixture at 37° C., under an atmosphere of 5% CO2 for 4 hours. The cells are then washed and recultured for 48 hours in a medium containing 10% serum (DMEM 10% SVF). The cell carpet is then lysed, 45 hours after the transfection, in 100 μl of lysis buffer (Promega), recovered and then centrifuged at 20,000 g for 5 minutes. The luciferase activity is measured on 5 μl of the supernatant, adding 25 μl of substrate (Promega). The reading is taken on an LKB luminometer, cumulating the RLUs (relative light units) over 20 seconds.

[2] = tested on: tumours of type 3LL (Lewis Lung carcinoma); test: In vivo transfer into tumour cells (3LL tumours), luciferase activity; design: species or system mice; conditions: no peptide
Procedure: The corresponding tests are carried out on adult (>8 weeks) female C57/BL mice carrying tumours of type 3LL (Lewis Lung carcinoma) obtained by passing fragments of tumour from animal to animal, implanted under the skin of the flank.
As regards the solutions injected, they are prepared as follows: the DNA is first dissolved in the buffer, the peptide is then optionally added and, after 20 minutes, a solution of cationic lipids at high concentration (20 or 40 mM) is added to the mixture. After addition of all these products, the mixture contains, besides the DNA, the peptide and the cationic lipid, 150 mM NaCl, 5% D-glucose and 5 mM MES pH 6.2. In the case of the last two series with lipopolyamine C (RPR 120 535), the injection vehicle is 75 mM NaCl and 150 mM NaCl, 5% D-glucose respectively. The injection is made 20 to 30 minutes after the solution has been prepared.
Each transfecting composition (see Tables 9 and 10 for their respective specificities) is injected into the tumour 7 days after implantation, the mouse being anaesthetized with a ketamine 130 mg/kg+xylazine (4 mg/kg) mixture.
Two days after the injection, the tumour tissue is removed, weighed and then chopped up and ground in 500 μl of lysis buffer (Promega cell lysis buffer E153 A). After centrifugation (20,000 g for 10 minutes), 10 μl are taken and used to evaluate the luciferase activity by measuring the total light emission obtained after mixing with 50 μl of reagent (Promega luciferase assay substrate) in a Lumat LB 9501 luminometer (Berthold), with integration over 10 seconds.
The resulting activity is expressed as RLUs (relative light units) estimated in the entire tumour lysis supernatant, or as RLU per μg of DNA injected.

3LL cells = test: In vitro transfer of nucleic acid into 3LL cells, luciferase activity; format: cell-based; conditions: 0.5 μg DNA, 0.5 μg peptide, 75 mM NaCl
Procedure: A mixture of 10 μl composed of the following is prepared: 0.5 μg of pCMV-luc plasmid DNA, 0.5 μg of PR1 or PR2 a compound according to the invention, in a solution of 75 mM NaCl final lipopolyamine C (RPR 120535) in charge ratios as indicated in each of the tests listed in Table 11 below. 1×10^5 3LL cells (in 250 μl of DMEM culture medium with 10% foetal calf serum) are incubated with the above mixture at 37° C. under a 5% CO2 atmosphere for 4 hours. 500 μl of culture medium are added and the cells are recultured. The following day, the cells are washed and recultured for 24 hours in the same medium containing 10% foetal calf serum. The cell carpet is then lysed in 100 μl of lysis buffer (Promega). The luciferase activity is measured by adding 50 μl of substrate (Promega). The reading is taken on an LB luminometer by cumulating the RLUs (relative light nits) over 10 seconds.

NIH3T3 cells [3] = test: Variation of compound/DNA ratio in the presence of lipopolyamine A, luciferase activity; format: cell-based; conditions: Compound/DNA ratio 0
Procedure: as §1
0.55 μg of pCNV-luc plasma DNA and a compound according to the invention, in the ratio indicated, in 150 mM NaCl buffer solution,
1,3-bis (3-aminopropylamino) -2-propyl (dioctadecyl-carbamoylmethoxy)acetate in the charge ratios indicated.
as §2, with “2. 5·10^4” for “2. 4·10^5”, “on 10” for “on 5”, “adding 50” for “adding 25”, “on a Berthold lumat 9501®” for “on an LKB”, “over 10” for “over 20”

physchem = format: physicochemical
Procedure: This oligopeptide was synthesized in the form of the trifluoroacetic acid salt using an Applied Biosystem 431A peptide synthesizer, on an HMP resin (Applied Biosystem) and according to an FMOC strategy. After the synthesis, the peptide was released from the resin by treatment for 90 minutes in the presence of 1/19 water/TFA solution. After filtration, the solution is concentrated on a rotary evaporator and the peptide is then precipitated twice, by addition of tert-butyl methyl ether, from a solution in TFA. The final pellet is washed with tert-butyl methyl ether and then dried. The peptide is dissolved in 5 ml of water, filtered and purified by reverse-phase HPLC on a C18 100 A column (Biorad RSL). The peptide is purified by with the aid of a gradient of 0 to 25% of acetonitrile, 0.07% TFA in water 0.07% TFA. The purity of the peptide obtained is greater than 95% and its solubility in water is 100 mg/ml.
This oligopeptide was synthesized in the form of the trifluoroacetic acid salt according to the procedure described above, using 2/40/3/1/2 (v/v) water/TFA/phenol/ethanedithiol/thioanisole solution for the cleavage. The purity of the peptide obtained is greater than 95% and its solubility in water is 100 mg/ml at pH 2.1.
These oligopeptides are synthesized in the form of the trifluoroacetic acid salts according to the procedure described above. To do this, the resin is divided into two batches. A first batch intended for the synthesis of H is treated for the cleavage with 40/3/1/2/2 (v/v) TFA/phenol/ethanedithiol/thioanisole/water solution. The purity of the peptide obtained is greater than 90% and its solubility in water is 10 mg/ml at pH 2.1. The synthesis is continued on the second batch of resin so as to obtain nls-βAla-H. The cleavage solution used is identical to the previous one. The purity of the peptide obtained is greater than 95% and its solubility in water is 10 mg/ml at pH 2.1.

Compound: CCCCCCCCCCCCCCCCCCN(CCCCCCCCCCCCCCCCCC)C(=O)CNC(=O)C(CCCNCCCN)NCCCN (stereo not shown) [DOGS, dioctadecylamidoglycylspermine]
- luciferase activity (NIH 3T3 cells; Table 1, DOGS/DNA charge ratio 0.8x, compaction in 150 mM NaCl, 10 mM HEPES pH 7.1, 0.5 μg pCMV-luc): 32 R.L.U
- luciferase activity (NIH 3T3 cells; Table 1, DOGS/DNA charge ratio 1.8x, 150 mM NaCl, 10 mM HEPES pH 7.1, 0.5 μg pCMV-luc): 220 R.L.U
- luciferase activity (NIH 3T3 cells; Table 1, DOGS/DNA charge ratio 3x, 150 mM NaCl, 10 mM HEPES pH 7.1, 0.5 μg pCMV-luc): 5400 R.L.U
- luciferase activity (NIH 3T3 cells; Table 2, DOGS/DNA charge ratio 0.8x, 5% D-glucose, 150 mM NaCl, 10 mM HEPES pH 7.2, 0.5 μg DNA): 880 R.L.U
- luciferase activity (NIH 3T3 cells; Table 2, DOGS/DNA charge ratio 1.8x, 5% D-glucose, 150 mM NaCl, 10 mM HEPES pH 7.2, 0.5 μg DNA): 6600 R.L.U
- luciferase activity (NIH 3T3 cells; Table 2, DOGS/DNA charge ratio 3x, 5% D-glucose, 150 mM NaCl, 10 mM HEPES pH 7.2, 0.5 μg DNA): 22000 R.L.U
- luciferase activity (NIH3T3 cells [1]): 2150 RLU

Compound: CCCCCCCCCCCCCCCCCCN(CCCCCCCCCCCCCCCCCC)C(=O)CNC(=O)CNCCCNCCCCNCCCN [Lipopolyamine C, H2 N(CH2)3 NH(CH2)4 NH(CH2)3 NHCH2 COGlyN[(CH2)18]2]
- Result, RLU/tumour average ([2]; 18.75 μg DNA/tumour, 0.25 μg/μl, cationic lipid C 2 nmol/μg DNA, vehicle 75 mM NaCl): 222 700 RLU/tumour
- Result, RLU/tumour average ([2]; 20 μg DNA/tumour, 0.5 μg/μl, cationic lipid C 4 nmol/μg DNA, vehicle 150 mM NaCl, 5% D-glucose): 806 467 RLU/tumour
- luciferase activity (3LL cells; Table 11, Lipopolyamine C/DNA charge ratio 4x): 107 289 RLU
- luciferase activity (3LL cells; Table 11, Lipopolyamine C/DNA charge ratio 6x): 77 396 RLU
- luciferase activity (3LL cells; Table 11, Lipopolyamine C/DNA charge ratio 8x): 14 512 RLU
- luciferase activity (3LL cells; Table 12, Lipopolyamine C/DNA charge ratio 4x): 12 037 RLU
- luciferase activity (3LL cells; Table 12, Lipopolyamine C/DNA charge ratio 6x): 901 RLU
- luciferase activity (3LL cells; Table 12, Lipopolyamine C/DNA charge ratio 8x): 328 RLU

Compound: CCCCCCCCCCCCCCCCCCN(CCCCCCCCCCCCCCCCCC)C(=O)COCC(=O)OC(CNCCCN)CNCCCN [lipopolyamine A, d,1-3-bis(3-aminopropylamino)-2-propyl (dioctadecyl-carbamoylmethoxy)acetate]
- luciferase activity (NIH3T3 cells [3]; lipopolyamine A 3x): 8.9 10^6 RLU
- luciferase activity (NIH3T3 cells [3]; lipopolyamine A 6x): 6.2 10^6 RLU
- luciferase activity (NIH3T3 cells [3]; lipopolyamine A NH2/DNA phosphates 1.8x): 3.9 10^6 RLU
- Result, RLU/tumour average ([2]; 7.5 μg DNA/tumour, 0.5 μg/μl, cationic lipid A 3 nmol/μg DNA): 88 712 RLU/tumour
- Result, RLU/tumour average ([2]; 20 μg DNA/tumour, 2 μg/μl, cationic lipid A 1.8 nmol/μg DNA): 142 300 RLU/tumour
- Result, RLU/tumour average ([2]; 30 μg DNA/tumour, 2 μg/μl, cationic lipid A 3 nmol/μg DNA): 99 775 RLU/tumour

Compound: CC(C)[C@H](NC(=O)[C@H](CCCCN)NC(=O)[C@H](CCCNC(=N)N)NC(=O)[C@H](CCCCN)NC(=O)[C@H](CCCCN)NC(=O)[C@H](CCCCN)NC(=O)[C@@H]1CCCN1)C(=O)O [nls, ProLysLysLysArgLysVal]
- solubility (physchem; pH 2.1, water): 100 mg/mL (≈ 113 mM)

Compound: CC(C)[C@H](NC(=O)[C@H](CCCCN)NC(=O)[C@H](CCCNC(=N)N)NC(=O)[C@H](CCCCN)NC(=O)[C@H](CCCCN)NC(=O)[C@H](CCCCN)NC(=O)[C@@H]1CCCN1)C(=O)NCCC(=O)N[C@@H](CCCCN)C(=O)N[C@H](C(=O)N1CCC[C@H]1C(=O)N[C@@H](CCCCN)C(=O)N[C@@H](CCCCN)C(=O)N[C@@H](C)C(=O)N[C@@H](CCCCN)C(=O)N[C@@H](CCCCN)C(=O)N1CCC[C@H]1C(=O)N[C@@H](CCCCN)C(=O)N[C@H](C(=O)N1CCC[C@H]1C(=O)N[C@@H](CCCCN)C(=O)N[C@@H](CCCCN)C(=O)N[C@@H](C)C(=O)N[C@@H](CCCCN)C(=O)N[C@@H](CCCCN)C(=O)N1CCC[C@H]1C(=O)O)[C@@H](C)O)[C@@H](C)O [nls-H, ProLysLysLysArgLysVal-βAlaLysThrProLysLysAlaLysLysProLysThrProLysLysAlaLysLysPro (COOH) (SEQ ID No.9)]
- solubility (physchem; pH 2.1, water): 10 mg/mL (≈ 3.37 mM)

Compound: ATPAKKAAATPAKKAA [N, AlaThrProAlaLysLysAlaAlaAlaThrProAlaLysLysAlaAla (COOH) (SEQ ID No.:3)]
- solubility (physchem; water): 100 mg/mL

Compound: KTPKKAKKPKTPKKAKKP [H, LysThrProLysLysAlaLysLysProLysThrProLysLysAlaLysLysPro (COOH) (SEQ ID No.:4)]
- solubility (physchem; pH 2.1, water): 10 mg/mL

Source: US5945400A, “Nucleic acid-containing composition, preparation and use thereof” (Rhone-Poulenc Rorer SA, priority 1995, dated 1999)
